System: E. coli, ATCC #51813
Test: Antibacterial efficacy test, ATP Relative Light Unit (RLU) counts
Assay type: cell-based
Method: The NIST nanoparticles are formed by a chemical reduction process that utilizes citrate as reducing and capping agent.
Relative Light Unit (RLU) counts were recorded at 12 hours and 24 hours post treatment. RLU measurements were carried out using a Hygiena SystemSURE Plus V.2 SN067503 RLU meter with Hygenia AquaSnap TOTAL ATP Water Test Cat #U143 Lot #153019. Culturing media was Hardy Diagnostics Buffered Peptone Water Lot #118272. Samples were prepared with the nanoparticle treatments and then diluted with the media to provide the tested concentrations. The test organism (Microbiologics, E. coli, KwikStik, ATCC #51813, Ref #0791 K, Lot #791-1-6) was incubated in fresh Buffered Peptone Water growth media for 24 hours prior to exposure to the nanoparticle treatments.

O=[N+]([O-])[O-].[Ag+] [AgNO3 Silver Nitrate, silver nitrate]
RLU Counts at 12 Hours Post Exposure (0.25 ppm (mg/L)): 80 RLU
RLU Counts at 24 Hours Post Exposure (0.25 ppm (mg/L)): 25 RLU
RLU Counts at 12 Hours Post Exposure (0.5 ppm (mg/L)): 75 RLU
RLU Counts at 24 Hours Post Exposure (0.5 ppm (mg/L)): 46 RLU
RLU Counts at 12 Hours Post Exposure (1.0 ppm (mg/L)): 84 RLU
RLU Counts at 24 Hours Post Exposure (1.0 ppm (mg/L)): 30 RLU
